The values that follow come from ChEMBL document CHEMBL1146241, “Novel inhibitor for fibroblast growth factor receptor tyrosine kinase” (Bioorg Med Chem Lett, 2007).

The target of experiment [1] is T1, Fibroblast growth factor receptor 1 (Homo sapiens, UniProt P11362). The note with it: HUVEC.
Target sequence in this assay (P11362 22-822 limits assumed): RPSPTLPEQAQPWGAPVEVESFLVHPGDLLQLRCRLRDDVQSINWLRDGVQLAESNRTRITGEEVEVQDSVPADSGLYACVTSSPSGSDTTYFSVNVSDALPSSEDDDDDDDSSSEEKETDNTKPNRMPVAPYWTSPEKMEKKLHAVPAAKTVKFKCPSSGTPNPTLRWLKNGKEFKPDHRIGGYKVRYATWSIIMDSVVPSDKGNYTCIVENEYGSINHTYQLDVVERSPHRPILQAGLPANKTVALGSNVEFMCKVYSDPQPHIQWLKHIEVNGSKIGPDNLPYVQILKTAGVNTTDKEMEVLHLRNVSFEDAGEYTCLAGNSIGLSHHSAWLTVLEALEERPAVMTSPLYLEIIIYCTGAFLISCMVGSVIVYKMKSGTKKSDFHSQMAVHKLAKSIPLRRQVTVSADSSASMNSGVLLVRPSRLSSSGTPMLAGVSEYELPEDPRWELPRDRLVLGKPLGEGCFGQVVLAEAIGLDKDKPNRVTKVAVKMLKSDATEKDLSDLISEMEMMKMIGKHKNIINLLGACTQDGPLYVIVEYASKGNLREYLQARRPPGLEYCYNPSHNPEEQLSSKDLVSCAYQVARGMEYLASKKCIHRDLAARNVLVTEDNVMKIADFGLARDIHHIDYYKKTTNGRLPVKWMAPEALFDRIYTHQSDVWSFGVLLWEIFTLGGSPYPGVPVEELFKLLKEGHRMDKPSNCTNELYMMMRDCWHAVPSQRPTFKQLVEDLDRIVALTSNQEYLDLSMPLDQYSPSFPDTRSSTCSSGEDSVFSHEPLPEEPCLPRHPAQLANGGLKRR
Description: Inhibition of rhFGF2-induced cellular proliferation of HUVEC
Experiment [2] deals with T1, Fibroblast growth factor receptor 1. Briefly: Inhibition of human FGFR1 kinase expressed in insect cell by HTRF detection method. Background: TR-FRET usually uses a lanthanide donor and a delayed reading to cut background.
Target sequence in this assay (P11362 whole entry): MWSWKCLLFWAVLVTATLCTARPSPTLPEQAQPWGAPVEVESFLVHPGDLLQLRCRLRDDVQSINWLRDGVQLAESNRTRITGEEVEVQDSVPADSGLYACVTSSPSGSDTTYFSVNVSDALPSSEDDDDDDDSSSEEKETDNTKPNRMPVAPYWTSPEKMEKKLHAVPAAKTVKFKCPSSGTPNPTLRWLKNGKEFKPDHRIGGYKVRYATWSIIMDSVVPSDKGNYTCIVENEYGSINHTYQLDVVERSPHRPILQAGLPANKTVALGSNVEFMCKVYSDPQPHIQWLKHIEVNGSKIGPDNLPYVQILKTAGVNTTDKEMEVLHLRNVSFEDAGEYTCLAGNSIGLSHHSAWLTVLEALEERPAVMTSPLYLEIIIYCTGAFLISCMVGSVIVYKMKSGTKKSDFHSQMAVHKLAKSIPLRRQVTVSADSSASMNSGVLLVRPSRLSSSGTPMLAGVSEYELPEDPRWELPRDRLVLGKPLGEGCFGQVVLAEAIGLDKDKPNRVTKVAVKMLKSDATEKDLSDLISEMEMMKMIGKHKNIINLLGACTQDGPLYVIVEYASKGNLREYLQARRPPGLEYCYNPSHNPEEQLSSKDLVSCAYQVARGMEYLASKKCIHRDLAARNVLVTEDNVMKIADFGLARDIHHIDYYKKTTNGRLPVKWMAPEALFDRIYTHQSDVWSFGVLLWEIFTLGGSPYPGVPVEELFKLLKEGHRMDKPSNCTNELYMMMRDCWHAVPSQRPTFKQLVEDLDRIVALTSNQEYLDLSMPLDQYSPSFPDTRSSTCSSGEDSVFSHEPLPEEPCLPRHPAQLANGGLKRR

As to `Cc1[nH]c(/C=C2\C(=O)Nc3ccccc32)c(C)c1CCC(=O)O`, the MEC in experiment [1] was 10 µM.

In the case of `COc1cccc(-c2ccc3c(c2)NC(=O)/C3=C\c2[nH]c(C)c(CCC(=O)O)c2C)c1`, the IC50 (in general, the point on the concentration scale where inhibition reaches its midpoint) in experiment [2] amounted to 1200 nM. Further, the MEC in experiment [1] came out at 0.4 µM.

The compound `COc1cc(OC)cc(-c2ccc3c(c2)NC(=O)/C3=C\c2[nH]c(C)c(CCC(=O)O)c2C)c1` returned an IC50 in experiment [2] of 400 nM. The MEC in experiment [1] worked out at 0.4 µM.
